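Interpolation was linear, between the two tested concentrations surrounding the appropriate level; five concentrations were tested over 48 hours in 96-well plates. GI50 is the concentration that inhibits growth by half. Definition used: TGI = concentration required for complete inhibition of growth.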
Assays:
Assay in all cases: DTP human tumour cell line panel, 48 h
[1] = tested on: RXF 393 renal
[2] = tested on: MDA-MB-435
[3] = tested on: MCF7 breast
[4] = tested on: U251 CNS
[5] = tested on: NCI-H460 lung
[6] = tested on: NCI-H23 lung
[7] = tested on: RPMI-8226 leukemia
[8] = tested on: HOP-62 NSCLC
[9] = tested on: UACC-62 melanoma
[10] = tested on: COLO 205 colon
[11] = tested on: SNB-75 CNS
[12] = tested on: SW-620 colon
[13] = tested on: SK-MEL-5 melanoma
[14] = tested on: SF-268 CNS
[15] = tested on: T-47D breast
[16] = tested on: NCI/ADR-RES ovarian
[17] = tested on: HOP-92 NSCLC
[18] = tested on: K-562 leukemia
[19] = tested on: OVCAR-4 ovarian
[20] = tested on: HL-60(TB) leukemia
[21] = tested on: CCRF-CEM leukemia
[22] = tested on: A549 NSCLC
[23] = tested on: MOLT-4 leukemia
[24] = tested on: 786-0 renal
[25] = tested on: SR leukemia
[26] = tested on: ACHN renal
[27] = tested on: SK-OV-3 ovarian
[28] = tested on: SK-MEL-28 melanoma
[29] = tested on: M14 melanoma
[30] = tested on: SK-MEL-2 melanoma
[31] = tested on: IGROV1 ovarian
[32] = tested on: CAKI-1 renal
[33] = tested on: MALME-3M melanoma
[34] = tested on: HCC-2998 colon
[35] = tested on: SN12C renal
[36] = tested on: UO-31 renal
[37] = tested on: NCI-H226 lung
[38] = tested on: SF-539 CNS
[39] = tested on: SF-295 CNS
[40] = tested on: OVCAR-5 ovarian
[41] = tested on: OVCAR-3 ovarian
[42] = tested on: UACC-257 melanoma
[43] = tested on: OVCAR-8 ovarian
[44] = tested on: HS 578T breast
[45] = tested on: SNB-19 CNS
[46] = tested on: EKVX NSCLC
[47] = tested on: PC-3 prostate
[48] = tested on: KM12 colon
[49] = tested on: DU-145 prostate
[50] = tested on: LOX IMVI melanoma
[51] = tested on: HCT-15 colon
[52] = tested on: MDA-MB-231 breast
[53] = tested on: A498 renal

CCOC(=O)C1(C(=O)OCC)CCC(C(OC)OC)C(CC(=O)OC)C1 (stereo not drawn)
TGI [1]: > 10 µM | TGI [2]: > 10 µM | TGI [3]: > 10 µM | TGI [4]: > 10 µM | TGI [5]: > 10 µM | TGI [6]: > 10 µM | TGI [7]: > 10 µM | TGI [8]: > 10 µM | TGI [9]: > 10 µM | TGI [10]: > 10 µM | TGI [11]: > 10 µM | TGI [12]: > 10 µM | TGI [13]: > 10 µM | TGI [14]: > 10 µM | TGI [15]: > 10 µM | TGI [16]: > 10 µM | TGI [17]: > 10 µM | TGI [18]: > 10 µM | TGI [19]: > 10 µM | TGI [20]: > 10 µM | TGI [21]: > 10 µM | TGI [22]: > 10 µM | TGI [23]: > 10 µM | TGI [24]: > 10 µM | TGI [25]: > 10 µM | TGI [26]: > 10 µM | TGI [27]: > 10 µM | TGI [28]: > 10 µM | TGI [29]: > 10 µM | TGI [30]: > 10 µM | TGI [31]: > 10 µM | TGI [32]: > 10 µM | TGI [33]: > 10 µM

CCN(CCCCCCCCCCN1CC(=O)N(CCCCCCCCCCN(CC)Cc2ccccc2OC)CC1=O)Cc1ccccc1OC
GI50 [1]: 0.646 µM | TGI [1]: 1.93 µM | GI50 [2]: 1.31 µM | TGI [2]: 2.96 µM | GI50 [34]: 1.46 µM | TGI [34]: 2.9 µM | GI50 [35]: 1.51 µM | TGI [35]: 3.57 µM | GI50 [36]: 1.09 µM | TGI [36]: 3.25 µM | GI50 [3]: 1.2 µM | TGI [3]: 2.81 µM | GI50 [37]: 1.96 µM | TGI [37]: 3.94 µM | GI50 [38]: 1.58 µM | TGI [38]: 3.33 µM | GI50 [4]: 1.15 µM | TGI [4]: 2.58 µM | GI50 [5]: 1.54 µM | TGI [5]: 3.62 µM | GI50 [6]: 1.81 µM | TGI [6]: 4.52 µM | GI50 [39]: 1.15 µM | TGI [39]: 3.02 µM | GI50 [7]: 0.812 µM | TGI [7]: 3.1 µM | GI50 [40]: 3.36 µM | TGI [40]: 15.1 µM | GI50 [8]: 1.56 µM | TGI [8]: 3.05 µM | GI50 [9]: 2.06 µM | TGI [9]: 3.89 µM | GI50 [10]: 1.05 µM | TGI [10]: 2.52 µM | GI50 [11]: 2.68 µM | TGI [11]: 11.8 µM | GI50 [12]: 1.75 µM | TGI [12]: 3.95 µM | GI50 [41]: 1.18 µM | TGI [41]: 2.48 µM | GI50 [13]: 1.36 µM | TGI [13]: 2.7 µM | GI50 [14]: 1.49 µM | TGI [14]: 2.96 µM | GI50 [15]: 1.99 µM | TGI [15]: 6.33 µM | GI50 [42]: 1.7 µM | TGI [42]: 3.34 µM | GI50 [16]: 1.64 µM | TGI [16]: 3.24 µM | GI50 [43]: 1.47 µM | TGI [43]: 3.29 µM | GI50 [17]: 0.359 µM | TGI [17]: 2.34 µM | GI50 [18]: 0.388 µM | TGI [18]: 12 µM | GI50 [19]: 1.77 µM | TGI [19]: 6.59 µM | GI50 [20]: 1.02 µM | TGI [20]: 3.6 µM | GI50 [44]: 1.35 µM | TGI [44]: 4.26 µM | GI50 [45]: 3.18 µM | TGI [45]: 10.5 µM | GI50 [46]: 1.82 µM | TGI [46]: 8.14 µM | GI50 [21]: 2.11 µM | TGI [21]: 10.1 µM | GI50 [47]: 1.14 µM | TGI [47]: 2.59 µM | GI50 [48]: 1.03 µM | TGI [48]: 2.24 µM | GI50 [22]: 1.65 µM | TGI [22]: 4.54 µM | GI50 [23]: 1.8 µM | TGI [23]: 8.04 µM | GI50 [49]: 1.39 µM | TGI [49]: 2.78 µM | GI50 [50]: 0.587 µM | TGI [50]: 1.93 µM | GI50 [25]: 0.355 µM | TGI [25]: 2.37 µM | GI50 [51]: 1.55 µM | TGI [51]: 5.34 µM | GI50 [52]: 1.56 µM | TGI [52]: 3.61 µM | GI50 [26]: 2.36 µM | TGI [26]: 6.82 µM | GI50 [27]: 1.83 µM | TGI [27]: 3.68 µM | GI50 [28]: 1.75 µM | TGI [28]: 3.22 µM | GI50 [53]: 1.09 µM | TGI [53]: 2.94 µM | GI50 [31]: 1.57 µM | TGI [31]: 3.62 µM | GI50 [32]: 1.57 µM | TGI [32]: 3.15 µM | GI50 [33]: 1.64 µM | TGI [33]: 3.47 µM

Reference: PubChem BioAssay (NCI)
